From ChEMBL document CHEMBL1122618, “Total chemical synthesis and antitumor evaluation of 4-demethoxy-10,10-dimethyldaunomycin” (1984)

System: Mus musculus
Assay: The compound was tested intraperitoneally against P388 acute lymphocytic leukemia in mice (dose 10 mg/kg)
Format: functional
Details: route intraperitoneal

CC(=O)[C@@]1(O)C[C@H](OC2CC(N)C(O)C(C)O2)c2c(O)c3c(c(O)c2C1(C)C)C(=O)c1ccccc1C3=O (stereo partly specified)
T/C: >316
